According to patent publication US20230041563A1, “N-(1,3,4-OXADIAZOL-2-YL)ARYLCARBOXAMIDES OR SALTS THEREOF, PREPARATION METHODS, HERBICIDAL COMPOSITIONS AND USES THEREOF” (priority 2018, published 2023):

What was measured:
Experiment in all cases: Weeding effect in post-emergence stage (greenhouse pot spray)
Assay type in all cases: in vivo
Digitaria sanguinalis = test system: Digitaria sanguinalis
Summary of the method: (§1)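 Read-out: fresh-weight growth control rate scored 3 weeks after spraying, mean of three replicates. Plants treated at 2-3 leaf stage by spray tower, doses 500-15 g a.i./ha (500, 250, 125, 60, 15).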

Echinochloa crusgalli = test system: Echinochloa crusgalli
Summary of the method: as §1

Abutilon theophrasti = test system: Abutilon theophrasti
Summary of the method: as §1

Stellaria media = test system: Stellaria media
From the text: (§2) The activity level criteria for plant damage (i.e., growth control rate) are as follows:
(§3) The above growth control rates are fresh weight control rates.
(§4) Experiment on weeding effect in post-emergence stage: monocotyledonous and dicotyledonous weed seeds (Descurainia sophia, Capsella bursa-pastoris, Abutilon theophrasti, Galium aparine, Stellaria media, Lithospermum arvense, rorippa indica, Alopecurus aequalis, Beckmannia syzigachne, Sclerochloa dura, Phleum paniculatum, Bromus japonicus, Aegilops tauschii, Phalaris arundinacea, Amaranthus retroflexus, Chenopodiaceae, Commelina communis, Sonchus arvensis, convolvulus arvensis, Cirsium setosum, Solanum nigrum, Acalypha australis, Digitaria sanguinalis, Echinochloa crusgalli, Setaria viridis, Setaria glauca, Leptochloa chinensis, Monochoria vaginalis, Sagittaria trifolia, Scirpus juncoides, Cyperus rotundus, Cyperus iria, Cyperus difformis, Fimbristylis, Portulaca oleracea, Xanthium sibiricum, Pharbitis nil) and major crop seeds (wheat, corn, rice, soybean, cotton, oilseed rape, millet, sorghum, potato, sesame, ricinus) were placed in plastic pots filled with soil, then covered with 0.5-2 cm of soil, allowed to grow in a good greenhouse environment. After 2 weeks of sowing, the test plants were treated in the 2 to 3 leaf stage. The tested compounds of the present invention were respectively dissolved in acetone, then added with Tween 80 and 1.5 liter/ha of emulsifiable concentrate of methyl oleate as synergist, diluted with a certain amount of water to obtain a solution with a certain concentration, and sprayed with a spray tower onto the plants. After the application, the plants were cultured for 3 weeks in the greenhouse, and then the experimental results of the weeding were counted. The doses of the used compounds were 500, 250, 125, 60, 15 g a.i./ha, and the averages were obtained by repeating for three times.

Amaranthus retroflexus = test system: Amaranthus retroflexus
From the text: as §2, §3, §4

Compound	Digitaria sanguinalis (activity level) (Digitaria sanguinalis; Table 2, dose 500 g a.i./ha)	Echinochloa crusgah (activity level) (Echinochloa crusgalli; Table 2, dose 500 g a.i./ha)	Abutilion theophrasti (activity level) (Abutilon theophrasti; Table 2, dose 500 g a.i./ha)	Stellaria media (activity level) (Stellaria media; Table 2, dose 500 g a.i./ha)	Amaranthus retroflexus (activity level) (Amaranthus retroflexus; Table 2, dose 500 g a.i./ha)	Digitaria sanguinalis (activity level) (Digitaria sanguinalis; Table 2, dose 250 g a.i./ha)	Echinochloa crusgah (activity level) (Echinochloa crusgalli; Table 2, dose 250 g a.i./ha)	Abutilion theophrasti (activity level) (Abutilon theophrasti; Table 2, dose 250 g a.i./ha)	Stellaria media (activity level) (Stellaria media; Table 2, dose 250 g a.i./ha)	Amaranthus retroflexus (activity level) (Amaranthus retroflexus; Table 2, dose 250 g a.i./ha)
Cc1nnc(NC(=O)c2ccc(C(F)(F)F)c(SCC(F)(F)F)c2F)o1 [Compound 1-50]	5 (Level 5: growth control rate is above 85%)	5 (Level 5: growth control rate is above 85%)	5 (Level 5: growth control rate is above 85%)	5 (Level 5: growth control rate is above 85%)	5 (Level 5: growth control rate is above 85%)					
COC[S+]([O-])c1c(C(F)(F)F)ccc(C(=O)Nc2nnc(C)o2)c1F (stereo not drawn) [Compound 1-443]	5 (Level 5: growth control rate is above 85%)	5 (Level 5: growth control rate is above 85%)	5 (Level 5: growth control rate is above 85%)	5 (Level 5: growth control rate is above 85%)	5 (Level 5: growth control rate is above 85%)					
CNCC[S+]([O-])c1c(C(F)(F)F)ccc(C(=O)Nc2nnc(C)o2)c1F (stereo not drawn) [Compound 1-441]	5 (Level 5: growth control rate is above 85%)	5 (Level 5: growth control rate is above 85%)	5 (Level 5: growth control rate is above 85%)	5 (Level 5: growth control rate is above 85%)	5 (Level 5: growth control rate is above 85%)					
CC=CC[S+]([O-])c1c(C(F)(F)F)ccc(C(=O)Nc2nnc(C)o2)c1F (stereo not drawn) [Compound 1-398]	5 (Level 5: growth control rate is above 85%)	5 (Level 5: growth control rate is above 85%)	5 (Level 5: growth control rate is above 85%)	5 (Level 5: growth control rate is above 85%)	5 (Level 5: growth control rate is above 85%)					
Cc1nnc(NC(=O)c2ccc(C(F)(F)F)c(SCCO)c2F)o1 [Compound 1-59]	5 (Level 5: growth control rate is above 85%)	5 (Level 5: growth control rate is above 85%)	5 (Level 5: growth control rate is above 85%)	5 (Level 5: growth control rate is above 85%)	5 (Level 5: growth control rate is above 85%)					
C=CCC[S+]([O-])c1c(C(F)(F)F)ccc(C(=O)Nc2nnc(C)o2)c1F (stereo not drawn) [Compound 1-397]	5 (Level 5: growth control rate is above 85%)	5 (Level 5: growth control rate is above 85%)	5 (Level 5: growth control rate is above 85%)	5 (Level 5: growth control rate is above 85%)	5 (Level 5: growth control rate is above 85%)					
CC[S+]([O-])c1c(C(F)(F)F)ccc(C(=O)Nc2nnco2)c1F (stereo not drawn) [Compound 3-5]	5 (Level 5: growth control rate is above 85%)	5 (Level 5: growth control rate is above 85%)	5 (Level 5: growth control rate is above 85%)	5 (Level 5: growth control rate is above 85%)	5 (Level 5: growth control rate is above 85%)					
Cc1nnc(NC(=O)c2ccc(C(F)(F)F)c([S+]([O-])CC(C)(C)C)c2F)o1 (stereo not drawn) [Compound 1-392]	5 (Level 5: growth control rate is above 85%)	5 (Level 5: growth control rate is above 85%)	5 (Level 5: growth control rate is above 85%)	5 (Level 5: growth control rate is above 85%)	5 (Level 5: growth control rate is above 85%)					
Cc1nnc(NC(=O)c2ccc(C(F)(F)F)c(SCC(F)F)c2F)o1 [Compound 1-49]	5 (Level 5: growth control rate is above 85%)	5 (Level 5: growth control rate is above 85%)	5 (Level 5: growth control rate is above 85%)	5 (Level 5: growth control rate is above 85%)	5 (Level 5: growth control rate is above 85%)					
Cc1nnc(NC(=O)c2ccc(C(F)(F)F)c(S(=O)(=O)CCC(F)(F)F)c2F)o1 [Compound 1-53]	5 (Level 5: growth control rate is above 85%)	5 (Level 5: growth control rate is above 85%)	5 (Level 5: growth control rate is above 85%)	5 (Level 5: growth control rate is above 85%)	5 (Level 5: growth control rate is above 85%)					
CCSc1c(C(F)(F)F)ccc(C(=O)Nc2nnc(CC)o2)c1F [Compound 2-4]	5 (Level 5: growth control rate is above 85%)	5 (Level 5: growth control rate is above 85%)	5 (Level 5: growth control rate is above 85%)	5 (Level 5: growth control rate is above 85%)	5 (Level 5: growth control rate is above 85%)					
CCCC[S+]([O-])c1c(C(F)(F)F)ccc(C(=O)Nc2nnco2)c1F (stereo not drawn) [Compound 3-14]	5 (Level 5: growth control rate is above 85%)	5 (Level 5: growth control rate is above 85%)	5 (Level 5: growth control rate is above 85%)	5 (Level 5: growth control rate is above 85%)	5 (Level 5: growth control rate is above 85%)					
COCC[S+]([O-])c1c(C(F)(F)F)ccc(C(=O)Nc2nnco2)c1F (stereo not drawn) [Compound 3-57]	5 (Level 5: growth control rate is above 85%)	5 (Level 5: growth control rate is above 85%)	5 (Level 5: growth control rate is above 85%)	5 (Level 5: growth control rate is above 85%)	5 (Level 5: growth control rate is above 85%)					
CC(C)[S+]([O-])c1c(C(F)(F)F)ccc(C(=O)Nc2nnco2)c1F (stereo not drawn) [Compound 3-11]	5 (Level 5: growth control rate is above 85%)	5 (Level 5: growth control rate is above 85%)	5 (Level 5: growth control rate is above 85%)	5 (Level 5: growth control rate is above 85%)	5 (Level 5: growth control rate is above 85%)					
CCC(C)C[S+]([O-])c1c(C(F)(F)F)ccc(C(=O)Nc2nnc(C)o2)c1F (mixture of isomers) [Compound 1-29]	5 (Level 5: growth control rate is above 85%)	5 (Level 5: growth control rate is above 85%)	5 (Level 5: growth control rate is above 85%)	5 (Level 5: growth control rate is above 85%)	5 (Level 5: growth control rate is above 85%)					
CCOCC[S+]([O-])c1c(C(F)(F)F)ccc(C(=O)Nc2nnc(C)o2)c1F (stereo not drawn) [Compound 1-446]						5 (Level 5: growth control rate is above 85%)	5 (Level 5: growth control rate is above 85%)	5 (Level 5: growth control rate is above 85%)	5 (Level 5: growth control rate is above 85%)	5 (Level 5: growth control rate is above 85%)
CCC(C)[S+]([O-])c1c(C(F)(F)F)ccc(C(=O)Nc2nnco2)c1F (stereo not drawn) [Compound 3-17]	5 (Level 5: growth control rate is above 85%)	5 (Level 5: growth control rate is above 85%)	5 (Level 5: growth control rate is above 85%)	5 (Level 5: growth control rate is above 85%)	5 (Level 5: growth control rate is above 85%)					
Cc1nnc(NC(=O)c2ccc(C(F)(F)F)c(SCCC(F)(F)F)c2F)o1 [Compound 1-51]	5 (Level 5: growth control rate is above 85%)	5 (Level 5: growth control rate is above 85%)	5 (Level 5: growth control rate is above 85%)	5 (Level 5: growth control rate is above 85%)	5 (Level 5: growth control rate is above 85%)					
